Values quoted from earlier work in patent US20110183005A1, “PROCESS FOR THE PREPARATION OF CO[…] OF STABILIZED HYPOBROMITES” (BROMINE COMPOUNDS LTD., priority 2002, published 2011).

Conditions: at 25° C.

OBr [Hypobromous acid]
pK: 8.8
